According to article PMC7195589 (Journal of Ginseng Research, 2019):

Biological target: muscle-type creatine kinase (CK-MM) (Homo sapiens, UniProt P06732)
Experiment: BLI direct binding response at […]

Chain of muscle-type creatine kinase (CK-MM) (P06732 whole entry): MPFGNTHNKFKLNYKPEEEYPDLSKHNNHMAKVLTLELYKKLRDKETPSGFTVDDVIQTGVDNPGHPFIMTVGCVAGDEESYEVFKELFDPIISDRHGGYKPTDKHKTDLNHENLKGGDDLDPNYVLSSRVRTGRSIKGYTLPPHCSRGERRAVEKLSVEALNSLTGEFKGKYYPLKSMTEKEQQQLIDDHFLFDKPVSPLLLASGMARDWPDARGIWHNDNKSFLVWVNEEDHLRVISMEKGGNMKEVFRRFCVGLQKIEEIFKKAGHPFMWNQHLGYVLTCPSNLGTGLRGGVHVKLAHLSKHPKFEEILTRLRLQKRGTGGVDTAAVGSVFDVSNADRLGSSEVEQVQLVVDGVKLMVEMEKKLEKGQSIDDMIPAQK

Structure (SMILES) | BLI direct binding response at 300 uM (no KD)
CC(C)=CCC[C@](C)(O[C@@H]1O[C@H](CO)[C@@H](O)[C@H](O)[C@H]1O)[C@H]1CC[C@]2(C)[C@@H]1[C@H](O)C[C@@H]1[C@@]3(C)CC[C@H](O)C(C)(C)[C@@H]3CC[C@]12C [GK, ginsenoside compound K] | F1, Rh2, K, and their aglycones (PPT and PPD) displayed gradually direct interaction with CK-MM
CC(C)=CCC[C@](C)(O)[C@H]1CC[C@]2(C)[C@@H]1[C@H](O)C[C@@H]1[C@@]3(C)CC[C@H](O)C(C)(C)[C@@H]3[C@@H](O)C[C@]12C [PPT, 20(S)-protopanaxatriol] | F1, Rh2, K, and their aglycones (PPT and PPD) displayed gradually direct interaction with CK-MM
CC(C)=CCC[C@](C)(O)[C@H]1CC[C@]2(C)[C@@H]1[C@H](O)C[C@@H]1[C@@]3(C)CC[C@H](O[C@@H]4O[C@H](CO)[C@@H](O)[C@H](O)[C@H]4O)C(C)(C)[C@@H]3CC[C@]12C [Rh2, ginsenoside Rh2] | F1, Rh2, K, and their aglycones (PPT and PPD) displayed gradually direct interaction with CK-MM
